According to patent publication US20120258975A1, “Potent Small Molecule Inhibitors of Autophagy, and Methods of Use Thereof” (Shanghai Institute of Organic Chemistry, priority 2009, published 2012):

Tests used:
[1] = system: H4 cells; assay: Electron microscopy of H4 cells; assay type: cell-based
Description: FIG. 3 depicts electron microscopy analysis of the effect of MBCQ on autophagy. H4 cells were treated with 0.1% DMSO (vehicle), rapamycin (0.2 μM), MBCQ (10 μM), or MBCQ and rapamycin for 4 h. The cells were processed and imaged by EM.
The ultra-structure of cells treated with rapamycin was determined in the presence or absence of MBCQ. […] Treatment of rapamycin led to the formation of a large numbers of autophagosomes with characteristic double membrane.

[2] = molecular target: T1, Vps34 complex (Homo sapiens, UniProt Q8NEB9); assay: Vps34 complex kinase assay (PtdIns phosphorylation, TLC); assay type: biochemical; conditions: immunoprecipitated HA-Vps34 complex from 293T; wortmannin 10 uM
T1 construct: expressed in transfected cells; host or cells: 293T

[3] = system: major intracellular organelles; assay: Markers of intracellular organelles; assay type: cell-based
Description: The effects of MBCQ on early endosomes using immunostaining of EEA1 as a marker, lysosomes using immunostaining of lamp2 as a marker or lysotracker, trans-Golgi using GalT-YFP as a marker was determined. No effect of MBCQ was detected in any of these experiments.

[4] = system: MCF-7 cells; assay: MCF-7 cells under glucose-free condition; assay type: cell-based
Description: FIG. 11 depicts results showing that selected cancer cell lines are sensitive to MBCQ and its active derivatives under glucose free condition. BT549 cells were treated with indicated concentrations of C43 for 24 h in normal DMEM (A) or under serum free condition (B). The cell viability was assayed by MTT or harvested for western blotting assay with anti-LC3 (C). MCF-7 cells were treated with DMSO (1‰), C43 (10 μM) in DMEM with (D) or without (E) glucose, for 12 h. The cell viability was assayed by MTT or images (F). […] Bcap-37 cells were treated with indicated concentrations of C43 for 24 h in normal DMEM (H) or under serum free condition (I). The cell viability was assayed by MTT or images (J) And the cell lysates treated with C43 for indicated time were analyzed by western blotting using anti-PARP (L) or anti-LC3 (M) and α-tubulin was used as a loading control. (K) Cell cycle profile of Bcap-37 treated with C43. Bcap-37 cells were treated with DMSO (0.1%) (left figure), C43 (10 μM) (right figure) for 12 h. The cells were then fixed with 70% ethanol, stained with propidium iodide (PI, 40 μg/mL) and treated with RNase enzyme (200 μg/mL) solution for 30 min in dark. Cell cycle profile and possible apoptotic death were statistics analyzed by flow cytometer. […]

T1 sequence (Q8NEB9 whole entry): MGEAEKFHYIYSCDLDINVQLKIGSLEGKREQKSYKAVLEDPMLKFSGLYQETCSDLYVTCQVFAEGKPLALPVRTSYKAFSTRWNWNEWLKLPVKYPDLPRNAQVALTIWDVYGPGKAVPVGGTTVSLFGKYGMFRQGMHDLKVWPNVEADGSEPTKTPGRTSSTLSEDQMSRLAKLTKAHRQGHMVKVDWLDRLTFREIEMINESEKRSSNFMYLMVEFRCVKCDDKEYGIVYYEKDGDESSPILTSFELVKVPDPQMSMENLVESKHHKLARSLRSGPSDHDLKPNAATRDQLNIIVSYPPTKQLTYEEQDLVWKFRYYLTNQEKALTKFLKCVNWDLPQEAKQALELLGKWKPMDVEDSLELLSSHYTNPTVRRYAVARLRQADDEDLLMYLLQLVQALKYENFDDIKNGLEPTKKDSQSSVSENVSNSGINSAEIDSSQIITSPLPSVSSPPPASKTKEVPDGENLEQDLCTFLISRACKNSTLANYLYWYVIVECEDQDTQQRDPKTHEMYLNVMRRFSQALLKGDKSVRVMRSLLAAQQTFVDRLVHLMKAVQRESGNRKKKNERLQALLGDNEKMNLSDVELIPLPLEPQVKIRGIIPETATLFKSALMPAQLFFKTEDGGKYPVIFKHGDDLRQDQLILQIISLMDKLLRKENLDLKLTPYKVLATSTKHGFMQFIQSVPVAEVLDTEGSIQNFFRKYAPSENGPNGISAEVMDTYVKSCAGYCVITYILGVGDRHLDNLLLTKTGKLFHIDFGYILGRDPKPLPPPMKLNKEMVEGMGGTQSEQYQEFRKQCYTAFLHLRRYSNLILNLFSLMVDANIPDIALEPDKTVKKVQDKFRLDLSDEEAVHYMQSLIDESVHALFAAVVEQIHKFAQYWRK
T1 sequence (Q14457 whole entry partner): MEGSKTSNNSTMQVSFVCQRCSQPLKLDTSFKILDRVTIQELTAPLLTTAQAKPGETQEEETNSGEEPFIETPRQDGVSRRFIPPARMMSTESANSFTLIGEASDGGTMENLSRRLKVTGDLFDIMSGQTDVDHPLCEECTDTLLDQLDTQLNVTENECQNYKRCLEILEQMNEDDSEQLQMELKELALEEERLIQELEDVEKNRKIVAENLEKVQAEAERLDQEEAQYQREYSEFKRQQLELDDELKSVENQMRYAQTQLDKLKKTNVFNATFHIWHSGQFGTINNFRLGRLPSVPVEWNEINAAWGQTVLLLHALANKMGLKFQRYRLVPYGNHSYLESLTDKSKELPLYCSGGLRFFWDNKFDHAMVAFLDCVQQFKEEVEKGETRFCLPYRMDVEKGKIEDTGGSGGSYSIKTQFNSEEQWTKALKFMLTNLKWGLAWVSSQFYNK

Row | Compound | cell morphology ([1]; MBCQ alone for 4 h) | double membrane autophagosomes ([1]; rapamycin (0.2 μM) and MBCQ (10 μM) together, 4 h) | phosphorylation of PtdIns by Vps34 complex [2] | early endosomes (EEA1), lysosomes (lamp2, lysotracker), trans-Golgi (GalT-YFP) [3] | autophagy (western blot, LC3) ([4]; basal and glucose-free condition) | cell survival ([4]; glucose-free condition)
1 | Clc1ccc2ncnc(NCc3ccc4c(c3)OCO4)c2c1 [MBCQ] | morphologically similar to that control | conspicuously absent | not a direct inhibitor of Vps34 enzymatic activity | No effect | – | –
2 | Fc1ccc(CNc2ncnc3ccc(F)cc23)cc1 [C43, 6-fluoro-N-(4-fluorobenzyl)quinazolin-4-amine] | – | – | – | – | inhibited autophagy | reduced the survival
